Structures can show the parent of a compound that is named as a salt.

Consider 1 molecule from US6784314B2, “Process for producing amine derivatives” (Takeda Chemical Industries, Ltd., priority 2000, dated 2004).

Series [1] can be described thus: toxicity.
Series [2] is described as follows: stability on storage for a long time under usual conditions. The class given is physicochemical.
Series [3] is described as follows: transfer to the brain.
Series [4] relates to β-amyloid protein. As to the kind of experiment: action of inhibiting the production and secretion of β-amyloid protein.

For `CN(C)CC[C@@H]1CCc2cc(OCc3ccc(-c4ccccc4)cc3)ccc2C1` [Compound (V′), (R)-(+)-6-(4-biphenylyl)methoxy-2-[2-(N,N-dimethylamino)ethyl]tetralin hydrochloride monohydrate], in series [1], the toxicity result is “low toxic”. Moreover, the “stability (denaturation after storage)” value in series [2] is on record as “very excellent in stability”. Moreover, the “transfer to the brain” value in series [3] is given as “excellent in transfer to the brain”. The “action of inhibiting the production and secretion of β-amyloid protein” value in series [4] is “excellent”.
